The numbers were not newly measured in patent US20120225789A1, “DNA REPAIR OR BRCA1-LIKE GENE SIGNATURE” (Baylor College of Medicine, priority 2009, published 2012), which cites them from elsewhere.

In this data set the test system is mammary tumors in which BRCA1 protein has been lost. To be noted: mice spontaneously developing BRCA1-lost mammary tumors.

With `COc1cccc2c1C(=O)c1c(O)c3c(c(O)c1C2=O)C[C@@](O)(C(=O)CO)C[C@@H]3O[C@H]1C[C@H](N)[C@H](O)[C@H](C)O1` [doxorubicin], the “response of mice to chemotherapy” value is reported as “highly sensitive”.
Consider `N.N.[Cl][Pt][Cl]` [cisplatin], for which the “response of mice to chemotherapy” value is on record as “highly sensitive”.
As for `CC(=O)O[C@@]12CO[C@@H]1C[C@H](O)[C@@]1(C)C(=O)[C@H](O)C3=C(C)[C@@H](OC(=O)[C@H](O)[C@@H](NC(=O)OC(C)(C)C)c4ccccc4)C[C@@](O)([C@@H](OC(=O)c4ccccc4)[C@H]21)C3(C)C` [docetaxel], the “response of mice to chemotherapy” value is reported as “resistance”.
